Laboratory results as given in ChEMBL document CHEMBL4311960, “Two optimized antimicrobial peptides with therapeutic potential for clinical antibiotic-resistant Staphylococcus aureus” (Eur J Med Chem, 2019).
In brackets after ≈: the same amount, converted by molar mass.

Legend:
Candida albicans = experiment: Antifungal activity against Candida albicans ATCC 5314 assessed as reduction in fungal growth incubated for 24 hrs by serial dilution method; type: functional; settings: ATCC 5314, 24 h
Staphylococcus aureus [1] = experiment: Antibacterial activity against methicillin-resistant Staphylococcus aureus ATCC 18466 assessed as reduction in bacterial growth incubated for 24 hrs by serial dilution method; type: functional; settings: ATCC 18466, 24 h, read-out: MIC
Streptococcus mutans = experiment: Antibacterial activity against Streptococcus mutans UA159 assessed as reduction in bacterial growth incubated for 24 hrs by serial dilution method; type: functional; settings: UA159, 24 h
[2] = Hemolytic activity in mouse Erythrocyte assessed as HC50 incubated for 1 hr; type: ADME, cell-based; settings: mouse erythrocytes
Staphylococcus aureus [3] = experiment: Antibacterial activity against Staphylococcus aureus ATCC 25923 assessed as reduction in bacterial growth incubated for 24 hrs by serial dilution method; type: functional; settings: ATCC 25923, 24 h
[4] = Hemolytic activity in mouse Erythrocyte at 640 ug/ml incubated for 1 hr relative to control; type: ADME, cell-based; settings: mouse erythrocytes, read-out: %max
Erythrocyte = experiment: Hemolytic activity in mouse Erythrocyte assessed as HC10 incubated for 1 hr; type: ADME, cell-based
[5] = Cytotoxicity against human HEK293T cells assessed as cell viability at 5 to 640 ug/ml incubated for 48 hrs by MTT assay relative to control; type: cell-based, HEK-293T; settings: read-out: Activity
Streptococcus sanguinis = experiment: Antibacterial activity against Streptococcus sanguinis ATCC 10556 assessed as reduction in bacterial growth incubated for 24 hrs by serial dilution method; type: functional; settings: ATCC 10556, 24 h
Staphylococcus aureus [6] = experiment: Antibacterial activity against methicillin-resistant Staphylococcus aureus ATCC 19423 assessed as reduction in bacterial growth incubated for 24 hrs by serial dilution method; type: functional; settings: ATCC 19423, 24 h
Staphylococcus aureus [7] = experiment: Antibacterial activity against methicillin-resistant Staphylococcus aureus ATCC 18567 assessed as reduction in bacterial growth incubated for 24 hrs by serial dilution method; type: functional; settings: ATCC 18567, 24 h
Staphylococcus aureus [8] = experiment: Antibacterial activity against methicillin-resistant Staphylococcus aureus ATCC 19047 assessed as reduction in bacterial growth incubated for 24 hrs by serial dilution method; type: functional; settings: ATCC 19047, 24 h
Staphylococcus aureus [9] = experiment: Antibacterial activity against methicillin-resistant Staphylococcus aureus ATCC 18475 assessed as reduction in bacterial growth incubated for 24 hrs by serial dilution method; type: functional; settings: ATCC 18475, 24 h
Staphylococcus aureus [10] = experiment: Antibacterial activity against methicillin-resistant Staphylococcus aureus ATCC 19498 assessed as reduction in bacterial growth incubated for 24 hrs by serial dilution method; type: functional; settings: ATCC 19498, 24 h
Staphylococcus aureus [11] = experiment: Antibacterial activity against Staphylococcus aureus ATCC 25923 assessed as reduction in bacterial growth at MIC measured after 15 passages; type: functional
Staphylococcus aureus [12] = experiment: Antibacterial activity against Staphylococcus aureus ATCC 8325.4 assessed as reduction in bacterial growth incubated for 24 hrs by serial dilution method; type: functional; settings: ATCC 8325.4, 24 h
Staphylococcus aureus [13] = experiment: Antibacterial activity against Staphylococcus aureus ATCC 29213 assessed as reduction in bacterial growth incubated for 24 hrs by serial dilution method; type: functional; settings: ATCC 29213, 24 h
Staphylococcus aureus [14] = experiment: Antibacterial activity against methicillin-resistant Staphylococcus aureus ATCC 19900 assessed as reduction in bacterial growth incubated for 24 hrs by serial dilution method; type: functional; settings: ATCC 19900, 24 h
Staphylococcus aureus [15] = experiment: Ratio of MIC for resistant Staphylococcus aureus ATCC 29213 for 15 days to MIC for Staphylococcus aureus ATCC 29213 for 24 hrs; type: functional
Staphylococcus aureus [16] = experiment: Antibacterial activity against methicillin-resistant Staphylococcus aureus ATCC 18858 assessed as reduction in bacterial growth incubated for 24 hrs by serial dilution method; type: functional; settings: ATCC 18858, 24 h
Staphylococcus aureus [17] = experiment: Antibacterial activity against methicillin-resistant Staphylococcus aureus ATCC 18878 assessed as reduction in bacterial growth incubated for 24 hrs by serial dilution method; type: functional; settings: ATCC 18878, 24 h
Staphylococcus aureus [18] = experiment: Antibacterial activity against methicillin-resistant Staphylococcus aureus ATCC 19916 assessed as reduction in bacterial growth incubated for 24 hrs by serial dilution method; type: functional; settings: ATCC 19916, 24 h
Staphylococcus aureus [19] = experiment: Antibacterial activity against methicillin-resistant Staphylococcus aureus ATCC 19167 assessed as reduction in bacterial growth incubated for 24 hrs by serial dilution method; type: functional; settings: ATCC 19167, 24 h
Staphylococcus aureus [20] = experiment: Antibacterial activity against methicillin-resistant Staphylococcus aureus ATCC 19952 assessed as reduction in bacterial growth incubated for 24 hrs by serial dilution method; type: functional; settings: ATCC 19952, 24 h
Staphylococcus aureus [21] = experiment: Antibacterial activity against methicillin-resistant Staphylococcus aureus ATCC 19494 assessed as reduction in bacterial growth incubated for 24 hrs by serial dilution method; type: functional; settings: ATCC 19494, 24 h
Staphylococcus aureus [22] = experiment: Antibacterial activity against Staphylococcus aureus ATCC 29213 assessed as reduction in bacterial growth at MIC measured after 15 passages; type: functional
Staphylococcus aureus [23] = experiment: Antibacterial activity against Staphylococcus aureus ATCC 6538 assessed as reduction in bacterial growth incubated for 24 hrs by serial dilution method; type: functional; settings: ATCC 6538, 24 h
Staphylococcus aureus [24] = experiment: Antibacterial activity against methicillin-resistant Staphylococcus aureus ATCC 19102 assessed as reduction in bacterial growth incubated for 24 hrs by serial dilution method; type: functional; settings: ATCC 19102, 24 h
Staphylococcus aureus [25] = experiment: Antibacterial activity against methicillin-resistant Staphylococcus aureus ATCC 19041 assessed as reduction in bacterial growth incubated for 24 hrs by serial dilution method; type: functional; settings: ATCC 19041, 24 h
Staphylococcus aureus [26] = experiment: Ratio of MIC for resistant Staphylococcus aureus ATCC 25923 for 15 days to MIC for Staphylococcus aureus ATCC 25923 for 24 hrs; type: functional
Staphylococcus aureus [27] = experiment: Antibacterial activity against methicillin-resistant Staphylococcus aureus ATCC 18908 assessed as reduction in bacterial growth incubated for 24 hrs by serial dilution method; type: functional; settings: ATCC 18908, 24 h

Work on H-YIRKIRRFFKTLNKNLKK-NH2 yielded an MIC (Candida albicans; read-out: MIC) of less than 64 µg/mL, an MIC (Staphylococcus aureus [1]) of less than 64 µg/mL and an MIC (Streptococcus mutans; read-out: MIC) of 32 µg/mL. The HC50 at 1 h [2] was greater than 640 µg/mL, the MIC (Staphylococcus aureus [3]) was greater than 64 µg/mL and the hemolysis at 1 h, 640 ug/ml [4] was 7.17%. It also gave an HC10 (Erythrocyte) greater than 640 µg/mL, a viability at 48 h [5] of 70 to 80% and an MIC (Streptococcus sanguinis; read-out: MIC) of less than 64 µg/mL.
Cc1onc(-c2ccccc2)c1C(=O)N[C@@H]1C(=O)N2[C@@H]1SC(C)(C)[C@@H]2C(=O)O [OXACILLIN] showed an MIC (Staphylococcus aureus [6]) greater than 1200 µg/mL, an MIC (Staphylococcus aureus [7]) greater than 1200 µg/mL and an MIC (Staphylococcus aureus [8]) greater than 1200 µg/mL. The MIC (Staphylococcus aureus [9]) was greater than 1200 µg/mL, the MIC (Staphylococcus aureus [10]) was greater than 1200 µg/mL and the “fold change (FC)” value (Staphylococcus aureus [11]) was 8. It also gave an MIC (Staphylococcus aureus [12]) of 0.5 µg/mL (≈ 1.25 µM), an MIC (Staphylococcus aureus [13]) of 1 µg/mL (≈ 2.49 µM) and an MIC (Staphylococcus aureus [14]) greater than 1200 µg/mL. The Ratio (Staphylococcus aureus [15]) was 8, the MIC (Staphylococcus aureus [1]) was greater than 1200 µg/mL and the MIC (Staphylococcus aureus [16]) was greater than 1200 µg/mL. For the same compound, the MIC (Staphylococcus aureus [17]) was greater than 1200 µg/mL, the MIC (Staphylococcus aureus [18]) was greater than 1200 µg/mL and the MIC (Staphylococcus aureus [19]) was greater than 1200 µg/mL. For the same compound, the MIC (Staphylococcus aureus [20]) was greater than 1200 µg/mL, the MIC (Staphylococcus aureus [21]) was greater than 1200 µg/mL and the “fold change (FC)” value (Staphylococcus aureus [22]) was 8. For the same compound, the MIC (Staphylococcus aureus [23]) was 0.5 µg/mL (≈ 1.25 µM), the MIC (Staphylococcus aureus [24]) was greater than 1200 µg/mL and the MIC (Staphylococcus aureus [25]) was greater than 1200 µg/mL. The Ratio (Staphylococcus aureus [26]) was 8, the MIC (Staphylococcus aureus [3]; read-out: MIC) was 0.5 µg/mL (≈ 1.25 µM) and the MIC (Staphylococcus aureus [27]) was greater than 1200 µg/mL.
With H-YIRKIRRFFKKLNKNLKK-NH2 the MIC (Candida albicans; read-out: MIC) was less than 64 µg/mL, the MIC (Staphylococcus aureus [1]) was less than 64 µg/mL and the MIC (Streptococcus mutans; read-out: MIC) was less than 64 µg/mL. It also gave an HC50 at 1 h [2] greater than 640 µg/mL, an MIC (Staphylococcus aureus [3]) greater than 64 µg/mL and a hemolysis at 1 h, 640 ug/ml [4] of 9.86%. The HC10 (Erythrocyte) was greater than 640 µg/mL, the viability at 48 h [5] was 70 to 80% and the MIC (Streptococcus sanguinis) was greater than 64 µg/mL.
For H-LYKRYILRKFKFLKKKLKKK-NH2, the MIC (Candida albicans) was greater than 64 µg/mL, the MIC (Staphylococcus aureus [1]) was 64 µg/mL and the MIC (Streptococcus mutans) was greater than 64 µg/mL. The HC50 at 1 h [2] was greater than 640 µg/mL, the MIC (Staphylococcus aureus [3]; read-out: MIC) was less than 64 µg/mL and the hemolysis at 1 h, 640 ug/ml [4] was 9.34%. The HC10 (Erythrocyte) was greater than 640 µg/mL, the viability at 48 h [5] was 70 to 80% and the MIC (Streptococcus sanguinis) was greater than 64 µg/mL.
